Test results reported in PMC4660440 (Scientific Reports, 2015).
Where two headings read alike, the source gives them in different places.

Tests used:
BGC-823 = assay: MTT cytotoxicity assay, BGC-823; type: cell-based; conditions: Homo sapiens, BGC-823, drug exposure 48 h, mean ± SD (n = 3), read-out: Cytotoxic activity (IC50) BGC-823
Procedure: (§1) HeLa, BGC823, A-549, MCF-7 and HT-7702 cell lines were obtained from the ATCC. […] Tumor cells (3500–13,000) were seeded into 96-well microtest plates in 100 μL of culture medium per well, incubated for 48 h in the presence or absence of test compounds (8 different concentrations ranging from 100 to 0.01 μg/mL). For quantitative estimation of cytotoxicity, the (MTT) method was used, essentially performed as described previously. Briefly, cells were washed twice with PBS, fixed for 15 min in 1% glutaraldehyde solution, rinsed twice in PBS, and stained in 0.5% MTT solution for 4 h at 37 °C. […] The initial seeding densities varied among the cell lines to ensure a final absorbance reading in control (untreated) cultures within the range of 0.6–0.8 A492 units. Drug exposure was carried out for 2 days, and the IC50 value, i.e., the drug concentration that decreased the absorbance by 50%, was extrapolated from dose-response data. Each test was performed in triplicate, and the absorbance readings between the triplicates varied by no more than 10%.

[1] = tested on: BimEL, ATR, caspase 3, caspase 8, caspase 9, PARP in HeLa cells; assay: Western blot analysis of apoptosis proteins; type: cell-based; conditions: 24 h treatment
Procedure: For electrophoresis, the proteins were separated by sodium dodecyl sulfate–polyacrylamide gel electro-phoresis (SDS–PAGE). The proteins were then transferred to a nitrocellulose membrane, which was blocked with 5% skimmed milk in phosphate buffered saline Tween-20 (PBST). A specific primary antibody was added to bind the target proteins for either 1 h at room temperature or overnight at 4 °C. A horseradish peroxidase (HRP) conjugated secondary antibody was added to the membrane after the primary antibody was washed off. All signals were detected after the HRP was activated by enhanced chemiluminescence. The band intensities of Western results were quantitated with the Image Quant program (Molecular Dynamics Inc.), analyzed and graphed. The untreated controls and the etoposideinduced activation of signaling molecules were taken as 0% and 100%, respectively. Statistic analysis was performed with the uni-polar, paired Student t-test. Data were considered significant when P value was less than 0.05.

MCF-7 = assay: MTT cytotoxicity assay, MCF-7; type: cell-based; conditions: Homo sapiens, MCF7, drug exposure 48 h, mean ± SD (n = 3), read-out: Cytotoxic activity (IC50) MCF-7
Procedure: as §1

HeLa cells [2] = assay: Cell cycle analysis by flow cytometry (PI); type: cell-based; conditions: for Effect on HeLa cell cycle: 0.1, 1.0, 5.0 μM, 6, 12, 24, 48 h; for Ratio of cell cycle arrest (of total cells): 0.1 μM, 6, 12, 24 and 48 h
Procedure: The HeLa cell line was used for cell cycle analysis. Progression through the cell cycle was assessed by flow cytometry DNA determination with Propidium Iodide (PI). […] Flow cytometric analysis was performed using a BD accur C6 flow cytometer. Analysis was with Mod FIT software.

[3] = MTT cytotoxicity assay, normal hepatic cell line HL-7702; type: cell-based; conditions: HL-7702 normal hepatic cells, human normal hepatic immortal cell line, drug exposure 48 h, mean ± SD (n = 3), read-out: Cytotoxic activity (IC50) HL-7702
Procedure: as §1

topoisomerase II = assay: kDNA decatenation assay; type: biochemical; conditions: 100 μM
Procedure: The decatenation of kDNA was assayed according to TopoGen protocol in order to determine topoisomerase II activity. The substrate kDNA (200 ng) and 100 μM drugs were combined in assay buffer and incubated for 10 min on ice. Next, 1 U of topoisomerase II was added and the reaction was allowed to proceed for 15 min at 37 °C. The reaction was quenched via the addition of loading buffer (1% sarkosyl, 0.025% bromophenol blue, and 5% glycerol) and was then analyzed by electrophoresis on a 1% agarose gel in TBE buffer for 30 min at 130 V. The gel was stained with SYBR Green I (Molecular Probes) for 30 min and was visualized under UV illumination and photographed on a Tanon Imager.

tubulin = assay: Tubulin assembly centrifugation assay in vitro; type: biochemical; conditions: colchicine as positive control
Procedure: Ligands were dissolved in DMSO at 20 mM and kept at −80 °C. Work solutions were done in DMSO and kept at −20 °C. The 50% inhibitory ligand concentration of tubulin assembly was determined with a centrifugation assay. Tubulin was equilibrated prior to use in 3.4 M glycerol, 1 mM EGTA, 0.1 mM GTP, pH 7.0, buffer through a 25 cm × 0.9 cm Sephadex G-25 column. Aggregates were removed by a centrifugation at 90000 g × 10 min in a TLA 120 rotor at 4 °C in an Optima TLX centrifuge. Tubulin concentration was determined as described by Andreu^42. Tubulin was kept at 4 °C, and 0.9 mM GTP and 6 mM MgCl2 were added to the sample. The solution was distributed in 200 μL polycarbonate tubes for the TL100 rotor. Growing concentrations of the ligands ranging from 0 to 25 μM were added to the samples (DMSO content of the samples, 2.5%), which were incubated for 30 min at 37 °C. Microtubules were separated from unassembled tubulin by a centrifugation at 90000 g × 10 min in a TLA100 rotor at 37 °C in an Optima TLX centrifuge. The supernatant containing unassembled tubulin was carefully collected and the microtubule pellet resuspended in 10 mM sodium phosphate buffer, pH 7.0, containing 1% SDS. Both supernatants and pellets were diluted 1:5 in the same buffer, and tubulin concentrations were measured fluorometrically (λexc = 280; λems = 323) using tubulin standards calibrated spectrophotometrically. The 50% inhibitory ligand concentration of tubulin assembly was determined with a centrifugation assay that measured the decrease in the concentrations of microtubules assembled in the presence of different concentrations of the compound.

A549 = assay: MTT cytotoxicity assay, A549; type: cell-based; conditions: Homo sapiens, A549, drug exposure 48 h, mean ± SD (n = 3), read-out: Cytotoxic activity (IC50) A549
Procedure: as §1

HeLa cells [4] = assay: Annexin V-FITC/PI apoptosis assay; conditions: 0.1 μM, 6, 12, 24 and 48 h
Procedure: The HeLa cell line was used for cell apoptosis. Cells (20000 per mL) were incubated with several concentrations of the compounds or drugs for 6–48 h, and incubated in DMEM medium supplemented with 12% fetal calf serum (FCS), 2 mM L -glutamine, and 100 mg/L penicillin G and 100 mg/L streptomycin at 37 °C and 5% CO2. The cells were washed with PBS twice, centrifuged at 206 g for 5 min, and 5–10[5] cells were collected. Binding buffer suspension (500 μL) was added to the cells, and then 5 μL of the FITC-Annexin V mix was added. Next, 10 μL of the PI mix was added, and the suspension was mixed and kept at room temperature for 30 min in the dark. Analysis was with a BD accur C6 flow cytometer.

[5] = tested on: microtubules in HeLa cells; assay: Immunofluorescence of cellular microtubules; type: cell-based
Procedure: Cells (20000 per mL) were plated a onto 6-well tissue culture plates containing 12 mm round coverslips, cultured overnight, and then treated with different drugs at […] concentrations or drug vehicle (0.1% DMSO) for 12 h and 24 h. Attached cells were permeabilized. Cytoskeletons were incubated with α-tubulin, washed twice, and incubated with FITC goat anti-mouse immunoglobulins. The coverslips were washed, and 1 μg/mL DAPI to stain chromatin was added. The mixture was incubated for 30 min. After the samples were washed, they were examined and photographed using an Olympus epifluorescence microscope. The images were recorded with a Perkin Elmer camera.

HeLa = assay: MTT cytotoxicity assay, HeLa; type: cell-based; conditions: drug exposure 48 h, mean ± SD (n = 3), read-out: Cytotoxic activity (IC50) HeLa
Procedure: as §1

[6] = 5 μM, untreated control 0%, etoposide-induced activation 100%

SMILES | IC50 (BGC-823) [µM] | Extent of compound-induced ATR [1, 6] [%] | Extent of compound-induced PARP [1, 6] [%] | Extent of compound-induced caspase 3 [1, 6] [%] | Extent of compound-induced caspase 9 [1, 6] [%] | IC50 (MCF-7) [µM] | Effect on HeLa cell cycle (HeLa cells [2]) | IC50 at 48 h [3] [µM] | Ratio of cell cycle arrest (of total cells) (HeLa cells [2]; HeLa) | IC50 (A549) [µM] | Ratio of apoptotic Hela cells (of total cells) (HeLa cells [4]) | IC50 (HeLa; Homo sapiens, HeLa, 48 h) [µM] | other results
COc1ccc(N[C@@H]2c3cc4c(cc3[C@@H](c3cc(OC)c(O)c(OC)c3)[C@H]3C(=O)OC[C@@H]32)OCO4)cc1Br [Compound 17′, 4β-NH-(3-bromide-4-methoxyaniline)-4-deoxy-4′-demethylepipodophyllotoxin] | 5.63 ± 0.12 | 26 | 52 | 43 | 34 | 6.51 ± 0.37 | arrested at the G2/M phase | 91.8 ± 1.57 |  |  |  |  | Inhibition of the catalytic activity of Topo II (kDNA decatenation) (topoisomerase II): completely inhibited
COc1ccc(N[C@@H]2c3cc4c(cc3[C@@H](c3cc(OC)c(OC)c(OC)c3)[C@H]3C(=O)OC[C@@H]32)OCO4)cc1Cl [Compound 18, 4β-NH-(3-chloride-4-methoxyaniline)-4-deoxy-podophyllotoxin] | 3.52 ± 0.23 |  | 84 | 56 | 50 | 3.54 ± 0.14 | arrested at the G2/M phase | 79 ± 2.33 | less than 10% | 3.72 ± 0.29 | less than 15% |  | Inhibition of microtubule polymerization compared with colchicine (tubulin): effects higher than colchicine; Extent of compound-induced BimEL [1, 6]: 58%; BimEL level (pro-apoptotic protein) [1]: significantly increased; Total cell cycle arrest percentage (right peak of histogram) (HeLa cells [2]; HeLa, 5.0 μM, 48 h): 94.4%; Cellular depolymerization of microtubules ([5]; 12 and 24 h, compared with negative control 0.1% DMSO): able to cause cellular depolymerization of microtubules; Appearance of microtubules after treatment ([5]; immunofluorescence): greatly disrupted and disappeared
COc1ccc(N[C@@H]2c3cc4c(cc3[C@@H](c3cc(OC)c(O)c(OC)c3)[C@H]3C(=O)OC[C@@H]32)OCO4)cc1Cl [Compound 18′, 4β-NH-(3-chloride-4-methoxyaniline)-4-deoxy-4′-demethylepipodophyllotoxin] | 1.77 ± 0.23 | 46 | 54 | 69 | 35 | 3.18 ± 0.51 | arrested at the G2/M phase | 127.4 ± 0.46 | less than 10% | 3.04 ± 0.23 | less than 15% | 1.97 ± 0.16 | 
COc1ccc(N[C@@H]2c3cc4c(cc3[C@@H](c3cc(OC)c(O)c(OC)c3)[C@H]3C(=O)OC[C@@H]32)OCO4)cc1F [Compound 19′, 4β-NH-(3-fluoro-4-methoxyaniline)-4-deoxy-4′-demethylepipodophyllotoxin] | 0.4 ± 0.07 |  |  |  |  | 1.32 ± 0.24 | arrested at the G2/M phase | 188 ± 7.33 | less than 10% | 1.2 ± 0.25 | less than 15% | 0.56 ± 0.12 | Percentage of cell cycle arrest (right peak of histogram) (HeLa cells [2]; HeLa, 5.0 μM, 12 h): 84.9%
COc1cc([C@@H]2c3cc4c(cc3[C@@H](O[C@@H]3O[C@@H]5CO[C@@H](C)O[C@H]5[C@H](O)[C@H]3O)[C@H]3COC(=O)[C@H]23)OCO4)cc(OC)c1O [Etoposide, reference compound] | 25.5 ± 1.42 |  |  |  |  | 25.3 ± 1.93 |  | 24.6 ± 3.82 |  | 20.1 ± 1.95 |  | 59.4 ± 2.45 | IC50 (HeLa): 59.4 ± 2.45 µM
